Data as given in patent US5912264A, “6-halo-or nitrate-substituted paclitaxels” (Bristol-Myers Squibb Company, priority 1998, dated 1999).
Read-outs that look alike come from different tables or passages of the source.

How the values were obtained:
[1] = system: HCT-116 human colon carcinoma cells; test: Cytotoxicity (in vitro) in HCT-116 human colon carcinoma cells, MTS assay; format: cell-based; settings: read-out: IC50 (nM) HCT 116
Experimental: Cytoxicity was assessed in HCT-116 human colon carcinoma cells by MTS (3-(4,5-dimethylthiazol-2-yl)-5-(3-carboxymethoxyphenyl)-2-(4-sulphenyl)-2H-tetrazolium, inner salt) assay as reported in T. L. Riss, et. al., "Comparison of MTT, XTT, and a novel tetrazolium compound MTS for in vitro proliferation and chemosensitivity assays.," Mol. Biol. Cell 3 (Suppl.):184a, 1992. Cells were plated at 4,000 cell/well in 96 well microtiter plates and 24 hours later drugs were added and serial diluted. The cells were incubated at 37° form 72 hours at which time the tetrazolium dye, MTS at 333 μg/ml (final concentration), in combination with the electron coupling agent phenazine methosulfate at 25 μM (final concentration) was added. A dehydrogenase enzyme in live cells reduces the MTS to a form that absorbs light at […] which can be quantitated spectrophotometrically. The greater the absorbance the greater the number of live cells. The results are expressed as an IC50, which is the drug concentration required to inhibit cell proliferation (i.e. absorbance at 450 nm) to 50% of that of untreated control cells. The IC50 values for compounds evaluated in this assay are evaluated in Table I.

M109 lung carcinoma = test: Mice M109 Model (In-Vivo), median survival time % T/C; set-up: species or system mice (Balb/c x DBA/2 F1 hybrid); settings: Mus musculus, ip, days 1, 5 and 9 or days 5 and 8 post-implant, median survival T/C x 100
Experimental: Balb/c x DBA/2 F1 hybrid mice were implanted intraperitoneally, as described by William Rose in Evaluation of Madison 109 Lung Carcinoma as a Modelfor Screening Antitumor Drugs, Cancer Treatment Reports, 65, No. 3-4 (1981), with 0.5 mL of a 2% (w/v) brei of M109 lung carcinoma.
Mice were treated with compounds under study by receiving intraperitoneal injections of various doses on either days 1, 5 and 9 post-tumor implant or days 5 and 8 post-implant. Mice were followed daily for survival until approximately 75-90 days post-tumor implant. One group of mice per experiment remained untreated and served as the control group.
Median survival times of compound-treated (T) mice were compared to the median survival time of the control (C) mice. The ratio of the two values for each compound-treated group of mice was multiplied by 100 and expressed as a percentage (i.e. % T/C) in the following Table II for representative compounds.

[2] = in vivo animal models; cited from earlier work
[3] = HCT-116, 72 hours, MTS, inhibition of cell proliferation to 50% of untreated control

CC(=O)O[C@H]1C(=O)[C@@]2(C)[C@H]([C@H](OC(=O)c3ccccc3)[C@]3(O)C[C@H](OC(=O)[C@H](O)[C@@H](NC(=O)c4ccccc4)c4ccccc4)C(C)=C1C3(C)C)[C@]1(OC(C)=O)CO[C@@H]1[C@@H](Cl)[C@@H]2O [Ij, 6-α-Chloropaclitaxel]
IC50 [1, 3]: 1.2 nM
response vs control in vivo at 100 mg/kg (M109 lung carcinoma): 203%

CO[C@H]1[C@H](F)[C@H]2OC[C@@]2(OC(C)=O)[C@H]2[C@H](OC(=O)c3ccccc3)[C@]3(O)C[C@H](OC(=O)[C@H](O)[C@@H](NC(=O)OC(C)(C)C)c4ccccc4)C(C)=C([C@@H](OC(C)=O)C(=O)[C@@]21C)C3(C)C [In, 3'N-desbenzoyl-3'N-t-Butoxycarbonyl-7-O-methyl-6α-Fluoropaclitaxel]
response vs control in vivo at 25 mg/kg (M109 lung carcinoma): 144%

CC(=O)O[C@H]1C(=O)[C@@]2(C)[C@H]([C@H](OC(=O)c3ccccc3)[C@]3(O)C[C@H](OC(=O)[C@H](O)[C@@H](NC(=O)OC(C)(C)C)c4ccccc4)C(C)=C1C3(C)C)[C@]1(OC(C)=O)CO[C@@H]1[C@@H](F)[C@@H]2O [Ik, 3'N-desbenzoyl-3'N-t-Butoxycarbonyl-6α-Fluoropaclitaxel]
IC50 ([1]; HCT-116, 72 h): 0.2 nM
response vs control in vivo at 100 mg/kg (M109 lung carcinoma): 269%

CO[C@H]1[C@H](F)[C@H]2OC[C@@]2(OC(C)=O)[C@H]2[C@H](OC(=O)c3ccccc3)[C@]3(O)C[C@H](OC(=O)[C@H](O)[C@@H](NC(=O)c4ccccc4)c4ccccc4)C(C)=C([C@@H](OC(C)=O)C(=O)[C@@]21C)C3(C)C [Id, 7-O-Methyl-6α-Fluoropaclitaxel]
IC50 ([1]; HCT-116, 72 h): 0.83 nM
response vs control in vivo at 100 mg/kg (M109 lung carcinoma): 147%

COCO[C@H]1[C@H](F)[C@H]2OC[C@@]2(OC(C)=O)[C@H]2[C@H](OC(=O)c3ccccc3)[C@]3(O)C[C@H](OC(=O)[C@H](O)[C@@H](NC(=O)c4ccccc4)c4ccccc4)C(C)=C([C@@H](OC(C)=O)C(=O)[C@@]21C)C3(C)C [Ib, 7-O-Methoxymethyl-6α-Fluoropaclitaxel]
IC50 ([1]; HCT-116, 72 h): 1.3 nM
response vs control in vivo at 100 mg/kg (M109 lung carcinoma): 162%

COCO[C@H]1[C@H](F)[C@H]2OC[C@@]2(OC(C)=O)[C@H]2[C@H](OC(=O)c3ccccc3)[C@]3(O)C[C@H](OC(=O)[C@H](O)[C@@H](NC(=O)OC(C)(C)C)c4ccccc4)C(C)=C([C@@H](OC(C)=O)C(=O)[C@@]21C)C3(C)C [Il, 3'N-desbenzoyl-3'N-t-Butoxycarbonyl-7-O-methoxymethyl-6a-Fluoropaclitaxel]
IC50 ([1]; HCT-116, 72 h): 2.5 nM
response vs control in vivo at 50 mg/kg (M109 lung carcinoma): 187%

CSCO[C@H]1[C@H](F)[C@H]2OC[C@@]2(OC(C)=O)[C@H]2[C@H](OC(=O)c3ccccc3)[C@]3(O)C[C@H](OC(=O)[C@H](O)[C@@H](NC(=O)c4ccccc4)c4ccccc4)C(C)=C([C@@H](OC(C)=O)C(=O)[C@@]21C)C3(C)C [Ic, 7-O-Meththiomethyl-6α-Fluoropaclitaxel]
IC50 ([1]; HCT-116, 72 h): 3.3 nM
response vs control in vivo at 100 mg/kg (M109 lung carcinoma): 147%

CC(=O)O[C@H]1C(=O)[C@@]2(C)[C@H]([C@H](OC(=O)c3ccccc3)[C@]3(O)C[C@H](OC(=O)[C@H](O)[C@@H](NC(=O)c4ccccc4)c4ccccc4)C(C)=C1C3(C)C)[C@]1(OC(C)=O)CO[C@@H]1[C@@H](F)[C@@H]2O [Ia, 6α-Fluoropaclitaxel]
IC50 ([1]; HCT-116, 72 h): 1.4 nM

CC(=O)O[C@H]1C(=O)[C@@]2(C)[C@H]([C@H](OC(=O)c3ccccc3)[C@]3(O)C[C@H](OC(=O)[C@H](O)[C@@H](NC(=O)c4ccccc4)c4ccccc4)C(C)=C1C3(C)C)[C@]1(OC(C)=O)CO[C@@H]1C[C@@H]2O [paclitaxel]
antitumor activity [2]: excellent antitumor activity in in vivo animal models
IC50 ([1]; HCT-116, 72 h): 1.53 to 2.73 nM

CC(=O)O[C@H]1C(=O)[C@]2(C)C[C@@H](Br)[C@H]3OC[C@@]3(OC(C)=O)[C@H]2[C@H](OC(=O)c2ccccc2)[C@]2(O)C[C@H](OC(=O)[C@H](O)[C@@H](NC(=O)c3ccccc3)c3ccccc3)C(C)=C1C2(C)C [Ip, 7-Deoxy-6-β-Bromopaclitaxel]
IC50 ([1]; HCT-116, 72 h): 0.72 nM
response vs control in vivo at 50 mg/kg (M109 lung carcinoma): 172%

CC(=O)O[C@H]1C(=O)[C@@]2(C)[C@H]([C@H](OC(=O)c3ccccc3)[C@]3(O)C[C@H](OC(=O)[C@H](O)[C@@H](NC(=O)c4ccccc4)c4ccccc4)C(C)=C1C3(C)C)[C@]1(OC(C)=O)CO[C@@H]1[C@@H](Br)[C@@H]2O [Ie, 6α-Bromopaclitaxel]
IC50 [1, 3]: 2.6 nM
response vs control in vivo at 200 mg/kg (M109 lung carcinoma; dose 200 mg/kg): 214%

CSCO[C@H]1[C@H](F)[C@H]2OC[C@@]2(OC(C)=O)[C@H]2[C@H](OC(=O)c3ccccc3)[C@]3(O)C[C@H](OC(=O)[C@H](O)[C@@H](NC(=O)OC(C)(C)C)c4ccccc4)C(C)=C([C@@H](OC(C)=O)C(=O)[C@@]21C)C3(C)C [Im, 3'N-desbenzoyl-3'N-t-Butoxycarbonyl-7-O-methylthiomethyl-6α-Fluoropaclitaxel]
IC50 [1, 3]: 1 nM

CC(=O)O[C@H]1C(=O)[C@]2(C)C[C@@H](I)[C@H]3OC[C@@]3(OC(C)=O)[C@H]2[C@H](OC(=O)c2ccccc2)[C@]2(O)C[C@H](OC(=O)[C@H](O)[C@@H](NC(=O)c3ccccc3)c3ccccc3)C(C)=C1C2(C)C [Iq, 7-Deoxy-6-β-Iodopaclitaxel]
IC50 ([1]; HCT-116, 72 h): 2.24 nM
response vs control in vivo at 50 mg/kg (M109 lung carcinoma): 129%

CSCO[C@H]1[C@H](O[N+](=O)[O-])[C@H]2OC[C@@]2(OC(C)=O)[C@H]2[C@H](OC(=O)c3ccccc3)[C@]3(O)C[C@H](OC(=O)[C@H](O)[C@@H](NC(=O)c4ccccc4)c4ccccc4)C(C)=C([C@@H](OC(C)=O)C(=O)[C@@]21C)C3(C)C [Ih, 7-O-Methylthiomethylpaclitaxel-6α-nitrate]
IC50 ([1]; HCT-116, 72 h): 7.35 nM
response vs control in vivo at 195 mg/kg (M109 lung carcinoma): 132%

CC(=O)O[C@H]1C(=O)[C@]2(C)C[C@@H](Cl)[C@H]3OC[C@@]3(OC(C)=O)[C@H]2[C@H](OC(=O)c2ccccc2)[C@]2(O)C[C@H](OC(=O)[C@H](O)[C@@H](NC(=O)c3ccccc3)c3ccccc3)C(C)=C1C2(C)C [Io, 7-Deoxy-6-β-Chloropaclitaxel]
IC50 [1, 3]: 0.62 nM
response vs control in vivo at 25 mg/kg (M109 lung carcinoma): 166%

COCO[C@H]1[C@H](O[N+](=O)[O-])[C@H]2OC[C@@]2(OC(C)=O)[C@H]2[C@H](OC(=O)c3ccccc3)[C@]3(O)C[C@H](OC(=O)[C@H](O)[C@@H](NC(=O)c4ccccc4)c4ccccc4)C(C)=C([C@@H](OC(C)=O)C(=O)[C@@]21C)C3(C)C [Ii, 7-O-Methoxymethylpaclitaxel-6α-nitrate]
IC50 ([1]; HCT-116, 72 h): 4.95 nM
response vs control in vivo at 195 mg/kg (M109 lung carcinoma): 141%

CC(=O)O[C@H]1C(=O)[C@@]2(C)[C@H]([C@H](OC(=O)c3ccccc3)[C@]3(O)C[C@H](OC(=O)[C@H](O)[C@@H](NC(=O)c4ccccc4)c4ccccc4)C(C)=C1C3(C)C)[C@]1(OC(C)=O)CO[C@@H]1[C@@H](O[N+](=O)[O-])[C@@H]2O [If, paclitaxel-6α-nitrate]
IC50 ([1]; HCT-116, 72 h): 1.5 nM
response vs control in vivo at 100 mg/kg (M109 lung carcinoma): 132%
